Data: patent publication US20220105096A1, “INHIBITORS OF HUMAN IMMUNODEFICIENCY VIRUS REPLICATION” (ViiV HEALTHCARE UK (NO.5) LIMITED, priority 2019, published 2022)

How the values were obtained:
[1] = Cytotoxicity in uninfected MT2 cells, XTT colorimetric assay; format: cell-based; conditions: human, day 4, XTT, read-out: cytotoxic CC50
Procedure: Compound cytotoxicity and the corresponding CC50 values were determined using the same protocol as described in the antiviral assay except that uninfected cells were used. Cytotoxicity was assessed on day 4 in uninfected MT2 cells by using an XTT (2,3-bis[2-Methoxy-4-nitro-5-sulfophenyl]-2H-tetrazolium-5-carboxanilide inner salt)-based colorimetric assay (Sigma-Aldrich, St Louis, Mo.).

[2] = test system: primary human hepatocytes; assay: Cytotoxicity assessed in parallel in the CYP induction assay; format: cell-based; conditions: concentrations tested up to 30 μM, 48 hours
Procedure: Compounds were tested in a CYP induction assay using inducible cryopreserved human primary hepatocytes from three donors to determine the potential to cause induction (as measured by an increase in mRNA transcription) of CYP2B6. Test compounds (0.12 to 30 μM final concentration) were incubated for 48 hours with primary human hepatocytes naturally expressing all nuclear receptors involved in regulation of expression levels of various CYP enzymes. Fresh solutions of test compounds and controls were diluted in assay media and added every 24 hours for two consecutive days, with a final DMSO concentration of 0.1%. At the end of the incubation, the integrity of cell monolayers, cell density and viability were evaluated to assess cytotoxicity effects. […] It was then used in reverse transcription polymerase chain reactions (RT-PCR) to quantify the amount of specific mRNA species encoding human CYP3A4, CYP2B6, and CYP1A2 genes.
The induction potential of test compounds and controls was compared to known CYP2B6 inducer Phenobarbital (1000 μM). The results of this assay are expressed as fold induction. Fold induction was calculated as a ratio of mRNA level in cells treated with test compound over that in cells treated with DMSO (solvent control) alone, the basal mRNA level, and thus represents the induction potential of the test compound. […]

[3] = Metabolism in monkey liver microsomes; format: in vitro ADME
Procedure: Liver microsomes from human, rat dog and monkey were thawed and diluted to a final concentration of 1 mg/mL in 100 mM potassium phosphate buffer (pH 7.4). Test compounds and controls were prepared at 100× final concentration of 1 μM in 1:1 acetonitrile:water (v/v) and aliquoted into microsomal mixture. The mixture was preincubated at 37° C. in a shaking water bath for 10 minutes. The incubations were performed in duplicate. Three controls were included in the incubations; warfarin, phenacetin, and verapamil. After the preincubation, the reaction was initiated with NADPH at a final concentration of 1 mM. At 0, 5, 15, 30, 45 and 60 minutes, 25 μL of sample was removed and quenched with 300 μL of acetonitrile containing internal standard (Telmisartan). The samples were vortexed for 5 minutes at 1200 rpm and then centrifuged at 4000 rpm for 10 min. A 100 μL aliquot of supernatant was diluted three-fold with water and injected on an Exion LC 4500 Triple Quad LC-MS/MS system. Results were reported as a percentage of parent remaining and was calculated from peak area ratios of test compound remaining after at each time point and compared to time zero incubation.

recombinant NL4-3 virus = assay: Antiviral potency in MT-2 cells infected with recombinant NL4-3 Renilla luciferase virus; format: cell-based, HIV; conditions: Human immunodeficiency virus 1, NL43, MT2
Procedure: MT-2 cells, 293T cells and the proviral DNA clone of NL4-3 virus were obtained from the NIH AIDS Research and Reference Reagent Program. MT-2 cells were propagated in RPMI 1640 media supplemented with 10% heat inactivated fetal bovine serum (FBS), […]. The 293T cells were propagated in DMEM media supplemented with 10% heat inactivated FBS, […] penicillin G and […] streptomycin. A recombinant NL4-3 proviral clone, in which a section of the nef gene was replaced with the Renilla luciferase gene, was used to make the reference virus used in these studies. The recombinant virus was prepared through transfection of the recombinant NL4-3 proviral clone into 293T cells using Transit-293 Transfection Reagent from Mirus Bio LLC (Madison, Wis.). Supernatant was harvested after 2-3 days and the amount of virus present was titered in MT-2 cells using luciferase enzyme activity as a marker by measuring luciferase enzyme activity. Luciferase was quantitated using the EnduRen Live Cell Substrate from Promega (Madison, Wis.). Antiviral activities of compounds toward the recombinant virus were quantified by measuring luciferase activity in MT-2 cells infected for 4-5 days with the recombinant virus in the presence of serial dilutions of the compound. […]

[4] = Allometric scaling of pre-clinical PK parameters to predict dose in human
Procedure: Human dose predictions were performed using Phoenix WinNonlin (v 8.0) software and Microsoft Excel using the ModelRisk add-in for population modeling. Human IV parameters (Vc, Ka, K12, K21, KeI) were determined using Mean Residence Time (MRT) scaling from preclinical species (mouse, rat, dog and cyno). For this calculation, each animal of the relevant PK studies was modeled independently. Absorption (Ka) was determined by deconvolution (PO) or from the half-life (SC) in preclinical species (Ka=LN(2)/t1/2). The predicted human dose for PO and SC is calculated with consideration of human variability and is calculated to cover 95% of the human population.

Cn1nc(NS(C)(=O)=O)c2c(Cl)ccc(-n3c([C@H](Cc4cc(F)cc(F)c4)NC(=O)Cn4nc(C(F)F)c5c4C(F)(F)[C@@H]4C[C@H]54)nc4nc(OCCC(C)(F)F)ccc4c3=O)c21 (atropisomer, axis not shown; (P)) [Example 1, N—((S)-1-((3P)-3-(4-chloro-1-methyl-3-(methylsulfonamido)-1H-indazol-7-yl)-7-(3,3-difluorobutoxy)-4-oxo-3,4-dihydropyrido[2,3-d]pyrimidin-2-yl)-2-(3,5-difluorophenyl)ethyl)-2-((3bS,4aR)-3-(difluoromethyl)-5,5-difluoro-3b,4,4a,5-tetrahydro-1H-cyclopropa[3,4]cyclopenta[1,2-c]pyrazol-1-yl)acetamide]
CC50 at 4 days [1]: > 10000 nM
cytotoxicity in CYP induction assay [2]: No cytotoxicity was observed
stability in monkey liver microsomes relative to Example 60.2 ([3]; Example 1 versus Example 60.2): at least two times more stable
half-life at 1 μM ([3]; monkey, liver microsomes, pH 7.4, 1 μM compound, 1 mg/mL microsomes, NADPH, 37° C., read-out: Monkey liver microsome T1/2): > 2 h
EC50 (recombinant NL4-3 virus): 0.019 ± 0.006 nM
predicted once-daily oral dose in human lower than for Example 60.2 ([4]; Example 1 versus Example 60.2): 15 fold
predicted Q1M SC dose in human lower than for Example 60.2 ([4]; from SC rat apparent half-lives and predicted human clearance): 20 fold
predicted human QD PO dose ([4]; once-daily oral dose to maintain efficacious plasma concentration, covers 95% of human population): less than 5 mg
